The record followed here is US20080090836A1, “Pyrazole Compounds Useful In The Treatment Of Inflammation” (priority 2004, published 2008).

By IC50 is commonly meant the concentration that gives 50% inhibition. Lower therefore signals greater potency.

The structures appear in SMILES notation.

The target of the assay is T1, purified human 15-lipoxygenase (Homo sapiens, UniProt P16050).
T1 sequence (P16050 1-662): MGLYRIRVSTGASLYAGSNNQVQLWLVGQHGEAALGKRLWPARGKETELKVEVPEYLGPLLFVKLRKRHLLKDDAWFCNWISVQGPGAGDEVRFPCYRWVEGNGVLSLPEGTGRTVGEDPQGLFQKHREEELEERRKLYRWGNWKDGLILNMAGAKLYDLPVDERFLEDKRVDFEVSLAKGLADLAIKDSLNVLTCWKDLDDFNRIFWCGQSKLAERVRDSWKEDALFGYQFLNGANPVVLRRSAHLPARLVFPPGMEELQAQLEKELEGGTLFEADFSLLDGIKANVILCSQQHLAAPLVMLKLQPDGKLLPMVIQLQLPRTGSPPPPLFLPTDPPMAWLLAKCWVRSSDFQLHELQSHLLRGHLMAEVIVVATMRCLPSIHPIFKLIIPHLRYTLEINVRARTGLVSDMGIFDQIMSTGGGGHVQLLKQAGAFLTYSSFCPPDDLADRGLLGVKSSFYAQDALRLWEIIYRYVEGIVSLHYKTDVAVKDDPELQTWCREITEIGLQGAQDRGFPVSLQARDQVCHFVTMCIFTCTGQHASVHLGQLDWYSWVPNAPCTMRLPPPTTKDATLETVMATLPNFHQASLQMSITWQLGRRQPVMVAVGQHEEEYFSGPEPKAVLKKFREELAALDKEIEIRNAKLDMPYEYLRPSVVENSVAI
The experiment in a line: 15-lipoxygenase inhibition assay (oxidation of arachidonic acid, product measured by reverse phase HPLC). The conditions noted are these: arachidonic acid substrate, room temperature, PBS pH 7.4. The class given is biochemical. On the procedure:
The assay employed takes advantage of the ability of lipoxygenases to oxidize polyunsaturated fatty acids, containing a 1,4-cis-pentadiene configuration, to their corresponding hydroperoxy or hydroxyl derivatives. In this particular assay, the lipoxygenase was a purified human 15-lipoxygenase and the fatty acid was arachidonic acid. The assay is performed at room temperature (20-22° C.) and the following are added to each well in a 96-well microliter plate:
a) 35 μL phosphate buffered saline (PBS) (pH 7.4);
b) inhibitor (i.e. compound) or vehicle (0.5 μl DMSO);
c) 10 μL of a 10× concentrated solution of 15-lipoxygenase in PBS. The plates are incubated for 5 minutes at room temperature;
The plate is then incubated for 10 minutes at room temperature;
e) the enzymatic reaction is terminated by the addition of 100 μl methanol; and
f) the amount of 15-hydroperoxy-eicosatetraenoic acid or 15-hydroxyeicosatetraenoic acid is measured by reverse phase HPLC.

`Cc1cn(C(=O)NCCc2cccs2)nc1C(=O)Nc1ccc(F)cc1Cl` [Example 4, 4-Methylpyrazole-1,3-dicarboxylic acid 3-[(2-chloro-4-fluorophenyl)-amide] 1-[(2-thien-2-ylethyl)amide]]: the IC50 was found to be 3.71 µM.

Consider `CCOC(=O)CNC(=O)n1cc(C)c(C(=O)Nc2ccc(F)cc2Cl)n1` [Example 17, {[3-(2-Chloro-4-fluorophenylcarbamoyl)-4-methylpyrazole-1-carbonyl]-amino}acetic acid ethyl ester], for which it took 8.51 µM to reach half-maximal inhibition (IC50).

As for `Cc1cc(C(=O)Nc2ccc(F)cc2Cl)nn1C(=O)NCCc1cccs1` [Example 30, 5-Methylpyrazole-1,3-dicarboxylic acid 3-[(2-chloro-4-fluorophenyl)-amide] 1-[(2-thien-2-ylethyl)-amide]], the half-maximal inhibitory concentration (IC50) was found to be 0.71 µM.

Consider `CCOC(=O)CNC(=O)n1nc(C(=O)Nc2ccc(F)cc2Cl)cc1C` [Example 31, {[3-(2-Chloro-4-fluorophenylcarbamoyl)-5-Methylpyrazole-1-carbonyl]-amino}-acetic acid ethyl ester], for which the IC50 turned out to be 0.63 µM.

`Cc1cc(C(=O)Nc2ccc(F)cc2Cl)nn1C(=O)NC1CCN(C(=O)OCc2ccccc2)CC1` [Example 32, 4-{[3-(2-Chloro-4-fluorophenylcarbamoyl)-5-methylpyrazole-1-carbonyl]amino}-piperidine-1-carboxylic acid benzyl ester] registered an IC50 of 0.66 µM.

On to `C=CCNC(=O)n1nc(C(=O)Nc2ccc(F)cc2Cl)cc1C` [Example 33, 5-Methylpyrazole-1,3-dicarboxylic acid 1-allylamide 3-[(2-chloro-4-fluorophenyl)amide]], for which half-maximal inhibition (IC50) required 5.6 µM.

`CCCCOc1ccc(S(=O)(=O)n2nc(C(=O)Nc3ccc(F)cc3Cl)cc2C)cc1` [Example 50, 1-(4-Butoxy-benzenesulfonyl)-5-methylpyrazole-3-carboxylic acid (2-chloro-4-fluorophenyl)amide] had an IC50 of 8.33 µM.

In turn, `COc1ccc(S(=O)(=O)n2nc(C(=O)Nc3ccc(F)cc3Cl)cc2C)cc1` [Example 51, 1-(4-Methoxy-benzenesulfonyl)-5-methylpyrazole-3-carboxylic acid (2-chloro-4-fluorophenyl)amide] returned an IC50 of 5.87 µM.
